The target in test [1] is T1, Butyrylcholinesterase (Equus caballus, UniProt Q9N1N9).
Description: Inhibition of equine serum BChE using butyrylthiocholine iodide as substrate after 15 mins by Ellman's method
The target in test [2] is T1, Butyrylcholinesterase. Nature of the test: Competitive inhibition of equine serum BChE using acetylthiocholine as substrate by Lineweaver-Burk plot analysis.
Test [3] deals with T2, Acetylcholinesterase (Electrophorus electricus, UniProt O42275).
Description: Inhibition of electric eel AChE using acetylthiocholine iodide as substrate after 15 mins by Ellman's method
In test [4] the target is T3, Amine oxidase [flavin-containing] A (Rattus norvegicus, UniProt P21396).
T3 sequence (P21396 whole entry): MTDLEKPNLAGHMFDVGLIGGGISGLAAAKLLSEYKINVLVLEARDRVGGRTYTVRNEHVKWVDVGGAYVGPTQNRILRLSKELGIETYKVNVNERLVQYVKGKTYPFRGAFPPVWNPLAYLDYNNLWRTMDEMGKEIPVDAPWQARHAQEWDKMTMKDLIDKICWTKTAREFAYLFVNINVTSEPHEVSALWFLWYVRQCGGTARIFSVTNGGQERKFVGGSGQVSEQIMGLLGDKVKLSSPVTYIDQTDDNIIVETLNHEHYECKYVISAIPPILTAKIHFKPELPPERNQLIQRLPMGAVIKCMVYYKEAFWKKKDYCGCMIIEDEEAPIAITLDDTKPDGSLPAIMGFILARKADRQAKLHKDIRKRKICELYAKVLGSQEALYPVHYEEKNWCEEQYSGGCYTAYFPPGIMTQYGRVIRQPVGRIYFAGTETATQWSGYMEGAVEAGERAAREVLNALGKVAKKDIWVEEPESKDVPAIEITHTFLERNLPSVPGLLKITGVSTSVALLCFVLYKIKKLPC
The test is described as follows: biochemical.
Description: Inhibition of mitochondrial MAO-A in rat liver homogenates using [14C]-(5-hydroxy-triptamine) as substrate preincubated for 30 mins by liquid scintillation counting

The target in test [5] is T4, Amine oxidase [flavin-containing] B (Rattus norvegicus, UniProt P19643).
T4 sequence (P19643 whole entry): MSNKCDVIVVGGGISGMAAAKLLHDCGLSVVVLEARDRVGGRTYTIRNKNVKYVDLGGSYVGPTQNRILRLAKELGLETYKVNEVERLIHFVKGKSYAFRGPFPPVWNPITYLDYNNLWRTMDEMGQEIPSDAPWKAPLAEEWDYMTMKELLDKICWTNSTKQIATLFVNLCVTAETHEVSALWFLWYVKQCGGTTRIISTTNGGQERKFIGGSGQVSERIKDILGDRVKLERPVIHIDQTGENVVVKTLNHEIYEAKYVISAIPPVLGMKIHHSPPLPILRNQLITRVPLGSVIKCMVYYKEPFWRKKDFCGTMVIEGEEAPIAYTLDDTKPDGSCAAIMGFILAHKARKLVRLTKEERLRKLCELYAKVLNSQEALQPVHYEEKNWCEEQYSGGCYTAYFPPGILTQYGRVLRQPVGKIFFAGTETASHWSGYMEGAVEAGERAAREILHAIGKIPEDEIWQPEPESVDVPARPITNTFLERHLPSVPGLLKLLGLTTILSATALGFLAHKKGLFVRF
Nature of the test: biochemical.
Description: Inhibition of mitochondrial MAO-B in rat liver homogenates using [14C]-phenylethylamine as substrate preincubated for 30 mins by liquid scintillation counting

In test [6] the target is Cholinesterase (Homo sapiens, UniProt P06276). The test is described as follows: Inhibition of human serum BuChE using butyrylthiocholine iodide as substrate by Ellman's method.
Test [7] addresses T2, Acetylcholinesterase. Nature of the test: Non-competitive inhibition of electric eel AChE using acetylthiocholine as substrate by Lineweaver-Burk plot analysis.
Test [8] concerns the target Acetylcholinesterase (Homo sapiens, UniProt P22303). The test is described as follows: Inhibition of human recombinant AChE using acetylthiocholine iodide as substrate by Ellman's method. In general terms: DTNB colorimetry detects thiols as they appear.

Each structure is given as a SMILES string. pIC50, pKi: −log10 of the molar value.

T2 sequence (O42275 whole entry): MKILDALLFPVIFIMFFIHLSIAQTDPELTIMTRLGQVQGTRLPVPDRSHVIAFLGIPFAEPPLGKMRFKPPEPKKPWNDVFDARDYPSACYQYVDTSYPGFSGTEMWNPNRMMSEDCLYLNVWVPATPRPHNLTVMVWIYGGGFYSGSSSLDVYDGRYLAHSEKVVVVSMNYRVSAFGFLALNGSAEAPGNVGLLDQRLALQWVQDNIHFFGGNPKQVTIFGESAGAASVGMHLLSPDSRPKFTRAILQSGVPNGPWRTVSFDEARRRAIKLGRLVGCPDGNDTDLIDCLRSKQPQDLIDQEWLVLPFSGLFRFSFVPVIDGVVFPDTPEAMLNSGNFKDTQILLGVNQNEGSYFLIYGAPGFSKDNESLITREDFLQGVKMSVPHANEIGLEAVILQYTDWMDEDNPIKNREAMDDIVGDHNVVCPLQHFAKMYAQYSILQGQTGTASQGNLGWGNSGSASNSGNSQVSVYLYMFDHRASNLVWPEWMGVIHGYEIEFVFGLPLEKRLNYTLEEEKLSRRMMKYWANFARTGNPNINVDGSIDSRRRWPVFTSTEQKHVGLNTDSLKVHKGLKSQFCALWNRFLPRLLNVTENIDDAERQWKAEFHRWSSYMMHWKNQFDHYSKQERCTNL
T1 sequence (Q9N1N9 whole entry): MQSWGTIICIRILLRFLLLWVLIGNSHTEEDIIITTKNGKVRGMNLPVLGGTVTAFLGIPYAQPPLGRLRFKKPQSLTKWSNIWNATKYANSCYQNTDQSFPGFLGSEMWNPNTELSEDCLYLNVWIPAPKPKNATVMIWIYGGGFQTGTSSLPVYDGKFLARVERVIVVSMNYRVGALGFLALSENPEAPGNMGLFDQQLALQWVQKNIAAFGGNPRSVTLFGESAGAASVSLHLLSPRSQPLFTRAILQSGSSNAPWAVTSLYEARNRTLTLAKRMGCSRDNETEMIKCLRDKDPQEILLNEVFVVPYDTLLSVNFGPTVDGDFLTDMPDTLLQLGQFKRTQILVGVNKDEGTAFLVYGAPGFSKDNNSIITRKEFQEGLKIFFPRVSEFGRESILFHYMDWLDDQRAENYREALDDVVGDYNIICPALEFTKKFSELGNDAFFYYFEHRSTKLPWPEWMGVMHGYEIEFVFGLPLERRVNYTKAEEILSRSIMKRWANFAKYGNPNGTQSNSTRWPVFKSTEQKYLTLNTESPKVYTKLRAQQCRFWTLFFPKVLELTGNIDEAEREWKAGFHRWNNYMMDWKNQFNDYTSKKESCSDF
Acetylcholinesterase (Homo sapiens, UniProt P22303), sequence (P22303 whole entry): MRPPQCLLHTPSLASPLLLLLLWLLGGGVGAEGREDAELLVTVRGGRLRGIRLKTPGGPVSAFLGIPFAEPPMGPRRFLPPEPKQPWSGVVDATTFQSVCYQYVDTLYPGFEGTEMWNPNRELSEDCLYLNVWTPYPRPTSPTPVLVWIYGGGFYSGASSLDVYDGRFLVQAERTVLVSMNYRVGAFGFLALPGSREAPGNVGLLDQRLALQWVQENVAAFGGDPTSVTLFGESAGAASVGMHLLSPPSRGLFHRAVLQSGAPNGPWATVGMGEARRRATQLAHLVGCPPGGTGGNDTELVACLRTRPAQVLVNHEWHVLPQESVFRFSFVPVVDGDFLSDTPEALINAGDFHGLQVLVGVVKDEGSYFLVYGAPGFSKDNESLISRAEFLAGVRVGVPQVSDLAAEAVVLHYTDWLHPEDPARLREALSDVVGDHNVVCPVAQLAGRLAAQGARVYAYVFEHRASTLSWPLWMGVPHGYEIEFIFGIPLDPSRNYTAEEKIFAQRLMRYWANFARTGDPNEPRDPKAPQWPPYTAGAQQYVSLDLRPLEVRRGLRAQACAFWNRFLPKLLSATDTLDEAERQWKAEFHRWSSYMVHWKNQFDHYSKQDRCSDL
Cholinesterase, sequence (P06276 whole entry): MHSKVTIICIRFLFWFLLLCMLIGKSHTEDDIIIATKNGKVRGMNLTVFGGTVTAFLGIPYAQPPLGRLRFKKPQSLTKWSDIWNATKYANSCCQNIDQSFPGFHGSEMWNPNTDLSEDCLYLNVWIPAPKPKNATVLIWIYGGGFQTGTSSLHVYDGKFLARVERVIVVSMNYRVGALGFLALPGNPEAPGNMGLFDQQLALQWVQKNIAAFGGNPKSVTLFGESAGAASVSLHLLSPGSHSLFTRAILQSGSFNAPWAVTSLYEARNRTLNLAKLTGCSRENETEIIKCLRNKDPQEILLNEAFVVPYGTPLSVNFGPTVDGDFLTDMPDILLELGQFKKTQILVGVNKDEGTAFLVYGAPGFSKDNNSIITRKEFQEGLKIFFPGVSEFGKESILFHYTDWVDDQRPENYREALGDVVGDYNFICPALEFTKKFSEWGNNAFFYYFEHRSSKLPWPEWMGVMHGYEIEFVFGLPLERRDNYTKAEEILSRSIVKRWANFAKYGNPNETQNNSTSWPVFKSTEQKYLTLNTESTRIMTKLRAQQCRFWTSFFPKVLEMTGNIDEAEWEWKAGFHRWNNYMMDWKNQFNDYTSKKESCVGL

Take `CC#CCN(C)Cc1cc2cc(OCc3ccccc3)ccc2[nH]1`: the pIC50 was 5.15 in test [1] and < 4.00 in test [3]. Further, the pKi in test [2] is 5.15.
With `C#CCN1CCc2nc3nc(N(C)C)c(C#N)cc3c(N)c2C1`, the pIC50 in test [4] was 3.00; in test [1], < 4.00; in test [5], 3.55; in test [3], 7.54.
For the compound `CC#CCN(C)Cc1cc2cc(OCc3ccccc3)ccc2n1C`, the pIC50 in test [1] and in test [3] was < 4.00 throughout.
Consider `C#CCN1CCc2nc3nc(OC)c(C#N)cc3c(N)c2C1`, for which the pIC50 in test [4] is 3.31; in test [1] it was < 4.00; in test [5], < 4.00; in test [3] it was 6.27.
For `C#CCN1CCc2nc3nc(Cl)c(C#N)cc3c(N)c2C1`, the pIC50 was 2.98 in test [4], < 4.00 in test [1], 3.18 in test [5] and 5.85 in test [3].
Taken in the same sequence, the figures for `C#CCN1CCc2nc3ccccc3c(N)c2C1` were 3.62, 5.18, 3.21 and 5.82.
`C#CCNCc1cc2cc(OCc3ccccc3)ccc2[nH]1`: the pIC50 was 4.37 in test [1], 7.66 in test [5] and < 4.00 in test [3].
With `C#CCN(C)Cc1cc2cc(OCc3ccccc3)ccc2[nH]1`, the values for the pIC50 in test [1] and in test [3] were 4.66 and < 4.00, respectively.
Taken in the same sequence, the figures for `C#CCN(C)Cc1cc2cc(OCc3ccccc3)ccc2n1C` were < 4.00 and < 4.00.
Take `CNCc1cc2cc(OCc3ccccc3)ccc2n1C`: the negative logarithm of the IC50 (pIC50) in test [4] is 4.00; in test [1] it was 4.96; in test [5], 4.36; in test [3] it was < 4.00.
Regarding `C#CCN1CCc2nc3nc(N4CCCC4)c(C#N)cc3c(N)c2C1`, the pIC50 was 3.21 in test [4]; 4.57 in test [1]; 4.09 in test [6]; 3.45 in test [5]; 6.19 in test [8]; 7.60 in test [3]. In test [7], the pKi was 7.19.
As to `C=C=CCN(C)Cc1cc2cc(OCc3ccccc3)ccc2n1C`, the values for the pIC50 in test [1] and in test [3] were 4.85 and < 4.00, respectively.
As for `C#CCN1CCc2nc3nc(N4CCCCC4)c(C#N)cc3c(N)c2C1`, the pIC50 is 3.48 in test [4], 5.00 in test [1], 3.53 in test [5] and 7.18 in test [3].

As a reminder, the pIC50 is −log10 of the IC50, conventionally taken in molar units. Usually pKi stands for the Ki on a negative log10 scale, so that one unit is a factor of ten.

(Values after ChEMBL document CHEMBL2021889, “Multipotent MAO and cholinesterase inhibitors for the treatment of Alzheimer's disease: synthesis, pharmacological analysis and molecular modeling of heterocyclic substituted alkyl and cycloalkyl propargyl amine” (Eur J Med Chem, 2012).)
